# Literature values as cited in patent US10024846B2, “Methods for treating diet-induced obesity by decreasing or inhibiting P2Y2 purinergic receptor expression or activity” (The United States of America as represented by the …, priority 2012, dated 2018).
# Experiments:
# [1] = target: human P2Y4 receptor (Homo sapiens, UniProt P51582); conditions: Herold et al. 2004
# [2] = target: rat P2Y4 receptor (Rattus norvegicus, UniProt O35811); conditions: Herold et al. 2004
# [3] = target: P2Y2 receptor; conditions: competitive P2Y2 receptor antagonists; values from cited literature
# Sequence of rat P2Y4 receptor (O35811 whole entry): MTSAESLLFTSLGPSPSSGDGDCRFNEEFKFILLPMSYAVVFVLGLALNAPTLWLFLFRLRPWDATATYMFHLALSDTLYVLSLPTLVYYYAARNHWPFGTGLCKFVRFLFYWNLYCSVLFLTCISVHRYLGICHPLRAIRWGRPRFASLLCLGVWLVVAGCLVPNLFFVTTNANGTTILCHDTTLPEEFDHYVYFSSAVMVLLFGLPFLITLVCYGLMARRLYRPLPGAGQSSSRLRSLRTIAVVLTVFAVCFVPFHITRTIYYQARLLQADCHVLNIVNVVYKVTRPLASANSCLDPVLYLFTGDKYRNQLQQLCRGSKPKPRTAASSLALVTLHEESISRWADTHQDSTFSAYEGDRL
# Sequence of human P2Y4 receptor (P51582 whole entry): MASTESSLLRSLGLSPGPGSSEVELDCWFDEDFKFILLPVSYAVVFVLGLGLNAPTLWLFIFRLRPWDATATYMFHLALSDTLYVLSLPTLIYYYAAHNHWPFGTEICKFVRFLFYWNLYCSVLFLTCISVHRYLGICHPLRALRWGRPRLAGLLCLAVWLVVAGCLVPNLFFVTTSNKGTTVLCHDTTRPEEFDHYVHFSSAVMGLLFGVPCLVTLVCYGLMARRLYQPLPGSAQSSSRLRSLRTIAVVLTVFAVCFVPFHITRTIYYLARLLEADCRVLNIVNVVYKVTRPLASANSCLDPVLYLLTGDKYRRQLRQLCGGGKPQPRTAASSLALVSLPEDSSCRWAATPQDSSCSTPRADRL
IC50 [3],SMILES,agonist versus antagonist action at the P2Y4 receptor [1],agonist versus antagonist action at the P2Y4 receptor [2]
,Nc1ncnc2c1ncn2[C@@H]1O[C@H](COP(=O)(O)OP(=O)(O)OP(=O)(O)O)[C@@H](O)[C@H]1O [ATP],potent competitive antagonist,potent full agonist
~6 µM,Cn1cc(C2c3ccc(Cl)cc3C=Cc3scnc32)c(=S)[nH]c1=O (stereo not shown) [AR-C126313],,
~6 µM,Cc1ccc2c(c1)C=Cc1cc(C)ccc1C2c1cn(Cc2ccc(C(=O)Nc3nnn[nH]3)o2)c(=O)[nH]c1=S [AR-C118925],,
